Test results taken from ChEMBL document CHEMBL1145293, “Synthesis and SAR of GlyT1 inhibitors derived from a series of N-((4-(morpholine-4-carbonyl)-1-(propylsulfonyl)piperidin-4-yl)methyl)benzamides” (Bioorg Med Chem Lett, 2006).

Experiments:
Cytochrome P450 3A4 = Cytochrome P450 3A4 (Homo sapiens, UniProt P08684); assay: Inhibition of CYP3A4; format: ADME
[1] = target: T1, Sodium- and chloride-dependent glycine transporter 1 (Mus musculus, UniProt P28571); assay: Inhibition of mouse GlyT1
T1 sequence (P28571 whole entry): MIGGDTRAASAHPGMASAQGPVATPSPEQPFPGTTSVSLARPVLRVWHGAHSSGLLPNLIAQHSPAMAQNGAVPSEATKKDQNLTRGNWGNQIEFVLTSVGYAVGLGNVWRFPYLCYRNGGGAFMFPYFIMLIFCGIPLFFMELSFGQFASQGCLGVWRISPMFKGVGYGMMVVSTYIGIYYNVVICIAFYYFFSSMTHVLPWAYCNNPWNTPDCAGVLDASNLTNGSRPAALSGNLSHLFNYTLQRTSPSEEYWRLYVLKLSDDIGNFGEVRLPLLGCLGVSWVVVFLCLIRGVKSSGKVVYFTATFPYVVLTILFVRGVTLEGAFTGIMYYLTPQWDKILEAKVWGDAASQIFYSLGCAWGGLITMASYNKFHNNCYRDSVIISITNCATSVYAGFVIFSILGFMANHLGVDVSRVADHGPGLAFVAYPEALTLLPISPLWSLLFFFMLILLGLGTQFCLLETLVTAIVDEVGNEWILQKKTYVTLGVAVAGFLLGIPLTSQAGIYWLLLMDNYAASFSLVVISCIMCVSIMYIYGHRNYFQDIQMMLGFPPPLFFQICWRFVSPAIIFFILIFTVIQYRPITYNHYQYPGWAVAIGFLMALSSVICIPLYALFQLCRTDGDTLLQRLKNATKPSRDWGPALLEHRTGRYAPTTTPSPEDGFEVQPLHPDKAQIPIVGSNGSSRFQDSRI

[2] = target: T2, Sodium- and chloride-dependent taurine transporter (Homo sapiens, UniProt P31641); assay: Inhibition of human TauT
T2 sequence (P31641 whole entry): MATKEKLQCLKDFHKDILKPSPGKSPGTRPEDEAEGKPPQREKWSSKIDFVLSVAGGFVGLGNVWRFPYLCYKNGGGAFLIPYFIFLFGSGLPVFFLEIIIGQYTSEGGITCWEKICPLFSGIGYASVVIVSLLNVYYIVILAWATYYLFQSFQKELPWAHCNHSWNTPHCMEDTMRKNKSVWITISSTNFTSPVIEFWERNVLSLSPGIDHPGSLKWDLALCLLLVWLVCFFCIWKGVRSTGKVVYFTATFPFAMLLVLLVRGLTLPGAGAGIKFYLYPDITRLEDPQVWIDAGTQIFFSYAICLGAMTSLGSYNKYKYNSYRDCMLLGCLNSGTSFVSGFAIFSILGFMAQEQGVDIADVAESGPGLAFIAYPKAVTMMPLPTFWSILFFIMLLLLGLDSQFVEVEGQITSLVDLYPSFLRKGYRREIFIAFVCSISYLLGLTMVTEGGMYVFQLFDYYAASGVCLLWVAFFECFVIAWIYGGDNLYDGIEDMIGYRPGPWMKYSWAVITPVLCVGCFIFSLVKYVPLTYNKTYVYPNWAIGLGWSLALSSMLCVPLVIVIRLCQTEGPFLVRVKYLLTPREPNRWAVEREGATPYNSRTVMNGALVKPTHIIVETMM

Cytochrome P450 3A4, sequence (P08684 whole entry): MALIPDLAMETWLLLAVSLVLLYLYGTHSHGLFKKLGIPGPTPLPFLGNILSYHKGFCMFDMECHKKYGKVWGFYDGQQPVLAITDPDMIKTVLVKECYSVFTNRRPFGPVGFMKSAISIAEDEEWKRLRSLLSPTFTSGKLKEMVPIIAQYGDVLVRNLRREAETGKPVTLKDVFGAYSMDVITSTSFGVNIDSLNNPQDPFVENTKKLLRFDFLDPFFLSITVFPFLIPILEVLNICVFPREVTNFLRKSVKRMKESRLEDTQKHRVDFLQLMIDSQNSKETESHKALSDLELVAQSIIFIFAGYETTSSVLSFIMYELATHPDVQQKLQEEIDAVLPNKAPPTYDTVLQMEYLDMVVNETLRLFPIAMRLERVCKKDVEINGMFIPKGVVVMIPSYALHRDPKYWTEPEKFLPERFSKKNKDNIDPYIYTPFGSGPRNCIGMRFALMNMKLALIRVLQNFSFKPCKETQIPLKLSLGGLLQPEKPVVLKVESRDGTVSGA

| Compound | Activity (Cytochrome P450 3A4) | IC50 [1] [nM] | IC50 [2] [nM] |
| --- | --- | --- | --- |
| CCCS(=O)(=O)N1CCC(CNC(=O)c2ccccc2Cl)(C(=O)N2CCOCC2)CC1 | Not Active | 95.3 | > 30000 |
| CCCS(=O)(=O)N1CCC(CNC(=O)c2c(F)cccc2Cl)(C(=O)N2CCOCC2)CC1 | Not Active | 57.3 | > 30000 |
| CCCS(=O)(=O)N1CCC(CNC(=O)c2c(F)ccc(Cl)c2F)(C(=O)N2CCOCC2)CC1 | Not Active | 42.8 | > 30000 |
| CCCS(=O)(=O)N1CCC(CNC(=O)c2ccc(Cl)cc2Cl)(C(=O)N2CCOCC2)CC1 | Not Active | 7.6 | > 30000 |
| CCCS(=O)(=O)N1CCC(CNC(=O)c2ccc(F)cc2Cl)(C(=O)N2CCOCC2)CC1 | Not Active | 28.5 | > 30000 |
| CCCS(=O)(=O)N1CCC(CNC(=O)c2cc(F)c(Cl)cc2Cl)(C(=O)N2CCOCC2)CC1 | Not Active | 19.4 | > 30000 |
